From US20130149721A1, “Methods for Inhibiting Amyloid Precursor Protein and Beta-Amyloid Production and Accumulation” (WISCONSIN ALUMNI RESEARCH FOUNDATION, priority 2008, published 2013)

Legend:
[1] = tested on: APP translation in SN; assay: 35S-Met labeling and immunoprecipitation of newly synthesized APP in synaptoneurosomes; assay type: cell-based, mouse; conditions: WT SN
Protocol: WT and KO SNs (450 μl) were mixed with 25 μl Redivue Pro-Mix-L [^35S] for 5 min prior to stimulation with 25 μl 2 mM DHPG. Samples were flash frozen at the indicated times. To analyze new protein synthesis, SN lysates were cleared of free isotope, Percoll®, and sucrose by purification with the PAGEprep Advance kit according to the manufacturer's directions. Protein concentrations were determined by the BCA assay, and 15 μg protein was denatured and loaded per lane on 12% SDS gels for content analysis. Gels were dried and exposed to a phosphorimager screen to identify the results of these assays.
To specifically analyze APP synthesis, WT and KO SN lysates (500 μl) were immunoprecipitated with APP antibody. Briefly, SN lysates were precleared with protein A magnetic beads in 1 ml volumes containing 500 μl SNs, 500 μl 2×IP buffer (20 mM HEPES (pH 7.4), 400 mM NaCl, 60 mM EDTA (pH 8), and 2% Triton X-100), protease inhibitor cocktail, and 100 μl packed fresh protein A magnetic beads. For the immunoprecipitations, 10 μg anti-APP antibody (Zymed catalog number 51-2700) and fresh protein A magnetic beads were added and mixed overnight at 4° C. The beads were washed three times with IP buffer, and the final, washed pellets were suspended in 40 μl 2×SDS sample buffer and boiled for 5 min; the proteins were then separated on 12% SDS gels. The gels were transferred to a nitrocelluose membrane, dried, exposed to a phosphorimager screen, and scanned on a STORM 860 phosphorimager (Molecular Dynamics http://www6.amershambiosciences.com). APP bands at 120 kDa were quantitated with ImageQuant software (GE Healthcare Life Sciences, http://www4.amershambiosciences.com).
For mGluR5 inhibitor studies, SNs (425 μl) were preincubated with 25 μl anisomycin (40 μM final concentration) or MPEP (10 μM final concentration) for 10 min prior to the addition of 25 μl ^35S-Met for 5 min and stimulation with DHPG (100 μM final concentration) for 15 min. Samples were processed as described in the preceding paragraph.
To further assess FMRP regulation of APP levels in brain, cortical SN were prepared from WT mice and overall protein synthesis analyzed in response to DHPG (100 μM)-induced mGluR5 activation. SN were metabolically active as assessed by ^35S-Met incorporation. […]
These conclusions were tested by assessing the effects on APP translation of contacting SN with a group 1 mGluR5 antagonist, 2-methyl-6-(phenylethynyl)-pyridine (MPEP). […] To assess the effect of MPEP, a specific mGluR5 antagonist, on DHPG stimulation of de novo APP synthesis, SN were pre-treated with 10 μM MPEP for 10 min prior to the addition of ^35S-Met for 5 min and stimulation with 100 μM DHPG for 15 min. ^35S-Met-labeled APP was immunoprecipitated with anti-APP antibodies and analyzed by SDS-PAGE. […]

[2] = tested on: dendritic APP in primary neuronal cells; assay: Immunofluorescence confocal quantitation of dendritic APP in primary cortical neurons; assay type: cell-based, mouse
Protocol: Pregnant female mice at embryonic day 18 (E18) were anesthetized with halothane prior to decapitation and transfer of the uterine sac to ice-cold HBSS. […] Cells were counted by trypan blue dye exclusion and plated at 1.25×10^5 cells/ml on poly(D)-lysine-coated glass coverslips in 12-well tissue-culture dishes and cultured for 11 d at 37° C./5% CO2. Half of the culture medium was removed and replaced with fresh, warm medium on day 4. […] All washes and antibody dilutions were in PBS containing 2% FBS. […] Images were acquired with a Nikon C1 laser-scanning confocal microscope with EZ-C1 v2.20 software (Nikon, http://www.nikon.com) at 60× magnification. APP levels in the puncta of four to seven dendrites per sample were quantitated with IMAGE J software using the Analyze Particles function (minimum of 205 puncta analyzed per treatment) (Rasband, Image J, U.S. National Institutes of Health, http://rsb.info.nih.gov/ij; 1997-2006). Figures were assembled with Adobe Photoshop 8.0 (Adobe Systems, http://www.adobe.com). […] It was recognized that SN are a relatively crude preparation of pre- and post-synaptic dendrites that are contaminated with other cell types, such as astrocytes, which form synapses with neurons. Thus, primary E18 cortical neuron cultures were prepared from WT and Fmr-1 KO brains and dendritic APP levels assessed using an immunofluorescence assay. There was a 21% increase in the basal level of APP in untreated dendrites from Fmr-1 KO neurons compared to WT (FIG. 5B). […] Staining of dendritic puncta was analyzed by confocal microscopy and quantitated with Image J software using the Analyze Particles function (a minimum of 475 particles were analyzed per treatment) (Rasband, W. S., Image J, U.S. National Institutes of Health, http://rsb.info.nih.gov/ij; 1997-2006). Duplicate slides were stained for each treatment and the number and intensity of dendritic puncta from three areas of each slide were analyzed and averaged. All MPEP-treated samples were statistically different from untreated controls by t-test analyses (p<0.005) and expressed as standard error of the mean (SEM).

[3] = molecular target: mGluR5 (Homo sapiens, UniProt P41594); conditions: shared allosteric modulatory site; cited from earlier work
Sequence of mGluR5 (P41594 21-1212): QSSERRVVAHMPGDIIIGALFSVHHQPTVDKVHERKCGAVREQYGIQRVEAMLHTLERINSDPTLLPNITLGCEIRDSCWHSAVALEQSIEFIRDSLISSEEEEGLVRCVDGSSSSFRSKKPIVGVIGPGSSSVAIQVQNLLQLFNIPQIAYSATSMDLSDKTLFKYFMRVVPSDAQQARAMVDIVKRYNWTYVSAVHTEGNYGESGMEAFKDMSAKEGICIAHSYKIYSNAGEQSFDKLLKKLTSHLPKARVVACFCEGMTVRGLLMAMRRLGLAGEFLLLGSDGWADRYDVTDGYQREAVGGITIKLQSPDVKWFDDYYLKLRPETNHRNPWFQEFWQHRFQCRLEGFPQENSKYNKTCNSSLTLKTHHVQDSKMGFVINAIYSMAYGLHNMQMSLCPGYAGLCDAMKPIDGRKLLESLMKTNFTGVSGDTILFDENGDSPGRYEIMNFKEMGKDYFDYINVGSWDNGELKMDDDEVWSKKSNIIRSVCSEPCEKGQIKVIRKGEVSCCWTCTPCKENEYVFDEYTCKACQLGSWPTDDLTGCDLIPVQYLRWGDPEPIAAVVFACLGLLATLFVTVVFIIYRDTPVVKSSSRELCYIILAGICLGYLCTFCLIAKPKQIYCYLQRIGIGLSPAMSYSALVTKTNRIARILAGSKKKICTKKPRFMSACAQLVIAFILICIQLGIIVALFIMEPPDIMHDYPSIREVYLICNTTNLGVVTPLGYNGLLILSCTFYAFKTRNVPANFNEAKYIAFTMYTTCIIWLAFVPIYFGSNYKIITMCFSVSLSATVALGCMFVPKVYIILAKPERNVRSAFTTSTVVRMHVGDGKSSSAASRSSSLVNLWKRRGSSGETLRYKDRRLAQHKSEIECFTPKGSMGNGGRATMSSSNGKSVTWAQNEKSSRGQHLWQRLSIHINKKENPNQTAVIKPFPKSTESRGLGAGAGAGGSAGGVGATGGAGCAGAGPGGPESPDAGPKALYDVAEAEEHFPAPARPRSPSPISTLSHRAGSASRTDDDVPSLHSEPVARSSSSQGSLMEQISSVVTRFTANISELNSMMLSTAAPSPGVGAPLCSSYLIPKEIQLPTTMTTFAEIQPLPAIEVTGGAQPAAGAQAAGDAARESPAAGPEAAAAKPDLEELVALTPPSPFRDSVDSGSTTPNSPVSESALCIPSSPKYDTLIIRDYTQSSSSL

[4] = tested on: anxiety phenotype in Fmr-1 KO mice; conditions: intraperitoneal injections; cited from earlier work
[5] = WT primary neuronal cells, 10 μM MPEP

SMILES	effect on DHPG-mediated synthesis of APP ([1]; 10 μM MPEP pre-treatment 10 min, 100 μM DHPG 15 min)	decrease in dendritic APP (average particle intensity) ([2]; WT C57BL/6 primary neuronal cells, 10 μM MPEP, 15 min) [%]	decrease in area of each particle [2, 5] [%]	increase in number of particles in a defined area [2, 5] [%]	decrease in dendritic APP at later times ([2]; WT primary neuronal cells, 10 μM MPEP, 4 hr and 1 day)	mGluR5 antagonist character [3]	effect on anxiety phenotype [4]	increase in APP translation ([1]; 100 μM DHPG, 15 min) [fold]	increase in APP translation over control ([1]; 100 μM DHPG, 1 hr) [fold]	increase in dendritic APP levels ([2]; Fmr-1 KO cultures, DHPG 10 and 20 min)	increase in dendritic APP levels ([2]; WT neurons, 100 μM DHPG, 10 and 20 min)
Cc1cccc(C#Cc2ccccc2)n1 [MPEP, 2-methyl-6-(phenylethynyl)pyridine]	blocked	37	22	29	persisted	potent and highly selective noncompetitive antagonists	reduce	–	–	–	–
N[C@@H](C(=O)O)c1cc(O)cc(O)c1 (racemic) [DHPG, (R,S)-3,5-dihydroxyphenylglycine]	–	–	–	–	–	–	–	2.7	1.6	no increase	18-25%
